Test: xn = mol fraction of the nth substance listed
Conditions: 100 kPa

CCCC#N + CCCC[n+]1ccn(C)c1.COS(=O)(=O)[O-]
speed of sound [m/s]
Conditions | x2 = 0 | x2 = 0.1117 | x2 = 0.2128 | x2 = 0.3714 | x2 = 0.4263 | x2 = 0.5115 | x2 = 0.6345 | x2 = 0.7161 | x2 = 0.8065 | x2 = 0.9072
298.15 K | 1279.9 | – | 1395.9 | 1468.7 | 1490.6 | 1521.4 | 1559.7 | – | 1605.3 | 1630.9
303.15 K | 1260.6 | 1323.5 | 1378.9 | 1452.9 | 1475.5 | – | 1545.8 | 1568.8 | – | 1618.2
308.15 K | 1241 | 1305.2 | 1361.8 | 1437.1 | 1460.3 | – | 1531.9 | – | 1579.1 | 1605.5
313.15 K | 1221.2 | 1286.9 | 1344.7 | 1421.4 | – | 1477.3 | – | 1541.4 | 1566 | 1592.8

CCCC[n+]1ccn(C)c1.COS(=O)(=O)[O-] + CCCC#N
x1 = 1
Conditions | speed of sound [m/s]
298.15 K | 1654.9
308.15 K | 1630.2
313.15 K | 1618.2

Reference: a compilation of properties of binary mixtures (doi:10.1016/j.molliq.2020.112507)
